Like-named read-outs stand apart in the source and are kept apart here.
Columns and labels:
[1] = system: HIV-1 NL4-3 gag A364V virus; assay: microbe, parasite or virus in culture; assay type: cell-based
In short: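 Recombinant NL4-3 reporter virus with Renilla luciferase replacing part of nef, made by transfection of 293T cells. MT-2 cells infected for 4-5 days with serial inhibitor dilutions; antiviral activity quantified by luciferase activity.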

[2] = system: WT (wild-type HIV virus; recombinant NL4-3 virus); assay: microbe, parasite or virus in culture; assay type: cell-based, HIV-1
In short: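 MT-2 cells infected 4-5 days with NL4-3 carrying Renilla luciferase in place of part of nef (Gag P373S), virus made by 293T transfection, with serial inhibitor dilutions. Antiviral activity read as luciferase activity by a modified dual-luciferase read-out.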

[3] = Rat PO pharmacokinetic study; assay type: in vivo; conditions: male, Sprague-Dawley, plasma, oral dose of 5 mg/kg, PEG-400/ethanol (90/10) solution, fasted rats
Method: Rat Pharmacokinetic Studies:
For the PO pharmacokinetic studies of the compounds in rats, the compounds were each dissolved in PEG-400/ethanol (90/10) as a solution.
Rat. Male Sprague-Dawley rats (300-350 g, Hilltop Lab Animals, Inc., Scottsdale, Pa.) with cannulas implanted in the jugular vein were used. The rats were fasted overnight in the PO pharmacokinetic studies. Blood samples of 0.3 mL were collected from the jugular vein in EDTA-containing microtainer tubes (Becton Dickinson, Franklin Lakes, N.J.), and centrifuged to separate plasma.
In the PO study of the tested compounds, the rats (n=3) received an oral dose of 5 mg/kg of the indicated compound. Serial blood samples were collected before dosing and 15, 30, 45, 60, 120, 240, 360, 480, and 1440 min after dosing.
Quantitation of Compounds in Plasma. Aliquots of plasma samples from rat, studies were prepared for analysis by precipitating plasma proteins with two volumes of acetonitrile containing an internal standard of a similar compound. The resulting supernates were separated from the precipitated proteins by centrifugation for 10 minutes and transferred to autosampler vials. Samples were either prepared manually, or with the use of the Tomtec automated liquid handler. An aliquot of 5 μL was injected for analysis.
The HPLC system consisted of two Shimadzu LC10AD pumps (Columbia, Md.), a Shimadzu SIL-HTC autosampler (Columbia, Md.), and a Hewlett Packard Series 1100 column compartment (Palo Alto, Calif.). The column was a YMC Pro C18 (2.0×50 mm, 3 μm particles, Waters Co., Milford, Mass.), maintained at 60° C. and a flow rate of 0.3 ml/min. The mobile phase consisted of 10 mM ammonium formate and 0.1% formic acid in water (A) and 100% 10 mM ammonium formate and 0.1% formic acid in methanol (B). The initial mobile phase composition was 95% A. After sample injection, the mobile phase was changed to 15% A/85% B over 2 minutes and held at that composition for an additional 1 minute. The mobile phase was then returned to initial conditions and the column re-equilibrated for 1 minute. Total analysis time was 4 minutes.
The HPLC was interfaced to a Micromass Quattro LC. Ultra high purity nitrogen was used as the nebulizing and desolvation gas at flow rates of 100 L/hr for nebulization and 1100 L/hr for desolvation. The desolvation temperature was 300° C. and the source temperature was 150° C. Data acquisition utilized selected reaction monitoring (SRM). Ions representing the (M+H)^+ species for the compound and the internal standard were selected in MS1 and collisionally dissociated with argon at a pressure of 2×10^−3 torr to form specific product ions which were subsequently monitored by MS2.

[4] = system: HIV-1 92UG029 (clade A virus); assay: HIV cell culture assay, 92UG029 Gag/Pr recombinant virus in MT-2 cells; assay type: cell-based
Method: MT-2 cells and 293T cells were obtained from the NIH AIDS Research and Reference Reagent Program. MT-2 cells were propagated in RPMI 1640 media supplemented with 10% heat-inactivated fetal bovine serum, […]. The 293T cells were propagated in DMEM media supplemented with 10% heat-inactivated fetal bovine serum (FBS), 100 units/mL penicillin G and 100 μg/mL streptomycin. The proviral DNA clone of NL4-3 was obtained from the NIH AIDS Research and Reference Reagent Program. A recombinant NL4-3 virus, in which a section of the nef gene from NL4-3 was replaced with the Renilla luciferase gene, was used as a reference virus. In addition, residue Gag P373 was converted to P373S. Briefly, the recombinant virus was prepared by transfection of the altered proviral clone of NL4-3. Transfections were performed in 293T cells using LipofectAMINE PLUS from Invitrogen (Carlsbad, Calif.), according to manufacturer's instruction. The virus was titered in MT-2 cells using luciferase enzyme activity as a marker. Luciferase was quantitated using the Dual Luciferase kit from Promega (Madison, Wis.), with modifications to the manufacturer's protocol. The diluted Passive Lysis solution was pre-mixed with the re-suspended Luciferase Assay Reagent and the re-suspended Stop & Glo Substrate (2:1:1 ratio). Fifty (50) μL of the mixture was added to each aspirated well on assay plates and luciferase activity was measured immediately on a Wallac TriLux (Perkin-Elmer). Antiviral activities of inhibitors toward the recombinant virus were quantified by measuring luciferase activity in cells infected for 4-5 days with NLRluc recombinants in the presence serial dilutions of the inhibitor.
Determination of EC50 for WT, EC50 for A364V, and EC50 for 92UG029 viruses:
HIV-1 92UG029 was obtained from the NIH (Catalog Number: 1650). This is a subtype A Gag and subtype A Env, X4 (SI) virus from Uganda. Reference: WHO Network for HIV Isolation and Characterization. AIDS Res Hum Retroviruses 10:1359, 1994. The Gag/Pr region from 92UG029 was used to replace that in an HIV-1 NL4-3 virus expressing Renilla luciferase gene.
Both recombinant viruses were used as described above in the HIV cell culture assay for the NL4-3 virus.

Compound: C=C(C)[C@@H]1CC[C@]2(NCCN3CCS(=O)(=O)CC3)CC[C@]3(C)[C@H](CC[C@@H]4[C@@]5(C)CC=C(C6=CC[C@@](CF)(C(=O)O)CC6)C(C)(C)[C@@H]5CC[C@]43C)[C@@H]12 [Example 2b, (R)-4-((1R,3aS,5aR,5bR,7aR,11aS,11bR,13aR,13bR)-3a-((2-(1,1-dioxidothiomorpholino)ethyl)amino)-5a,5b,8,8,11a-pentamethyl-1-(prop-1-en-2-yl)-2,3,3a,4,5,5a,5b,6,7,7a,8,11,11a,11b,12,13,13a,13b-octadecahydro-1H-cyclopenta[a]chrysen-9-yl)-1-(fluoromethyl)cyclohex-3-enecarboxylic acid]
- EC50 ([1]; Human immunodeficiency virus 1, NL43, MT2, read-out: A364V (EC50, uM), Table 1 regular screen, MT-2 cells, luciferase readout): 0.201 µM
- EC50 ([1]; Human immunodeficiency virus 1, NL43, MT2, read-out: EC50 A364V (μM), Table 2, 3× higher viral input): 0.17 µM
- EC50 ([2]; Human immunodeficiency virus 1, NL43, MT2, read-out: EC50 WT (μM), Table 2, 3× higher viral input): 0.003 µM
- EC50 ([2]; Human immunodeficiency virus 1, NL43, MT2, read-out: WT (EC50, uM), Table 1 regular screen, MT-2 cells, luciferase readout): 0.00148 µM
- AUC [3]: 7.39 µM·h
- EC50 ([4]; Human immunodeficiency virus 1, MT2, read-out: 92UG029A Clade T332S/V362I/V370A (EC50, uM)): 0.00618 µM
- EC50 ([4]; Human immunodeficiency virus 1, MT2, read-out: EC50 92UG029 (μM)): 0.001 µM
